This is an account of results in ChEMBL document CHEMBL4270632, “CD73 inhibition by purine cytotoxic nucleoside analogue-based diphosphonates” (Eur J Med Chem, 2018).

Test [1] concerns the target T1, 5'-nucleotidase (Homo sapiens, UniProt P21589). Put plainly: Inhibition of CD73 in human MDA-MB-231 cells assessed as reduction in conversion of AMP to adenosine incubated for 30 mins by malachite green reagent based assay. The format is cell-based.
Test [2] concerns the target T1, 5'-nucleotidase. The test is described as follows: Inhibition of recombinant CD73 (27 to 549 residues) (unknown origin) expressed in baculovirus infected Sf9 insect cells assessed as reduction in conversion of AMP to adenosine incubated for 1 min followed by AMP addition measured after 3.5 mins by malachite green reagent based assay.
Test [3] concerns the target T1, 5'-nucleotidase. Put plainly: Inhibition of CD73 in human NCI-H292 cells assessed as reduction in conversion of AMP to adenosine incubated for 30 mins by malachite green reagent based assay. The format is cell-based.
In test [4] the test system is CCRF-CEM. The test is described as follows: Cytotoxicity against human CCRF-CEM cells assessed as decrease in cell viability after 72 hrs by MTT assay. The format is cell-based.
Test [5] concerns Granta. Put plainly: Cytotoxicity against human Granta cells assessed as decrease in cell viability after 72 hrs by MTT assay. In kind it is cell-based. Background: Formazan colour is commonly taken as a measure of viable cells.
Test [6] concerns RL. Put plainly: Cytotoxicity against human RL cells assessed as decrease in cell viability after 72 hrs by MTT assay. The format is cell-based.
Test [7] has as its system HL-60. Put plainly: Cytotoxicity against human HL60 cells assessed as decrease in cell viability after 72 hrs by MTT assay. In kind it is cell-based. Conditions: HL-60, 72 h.

The source made the active and inactive calls. No cut-off for these calls is given here.

T1 sequence (P21589 whole entry, the tested form may be a part): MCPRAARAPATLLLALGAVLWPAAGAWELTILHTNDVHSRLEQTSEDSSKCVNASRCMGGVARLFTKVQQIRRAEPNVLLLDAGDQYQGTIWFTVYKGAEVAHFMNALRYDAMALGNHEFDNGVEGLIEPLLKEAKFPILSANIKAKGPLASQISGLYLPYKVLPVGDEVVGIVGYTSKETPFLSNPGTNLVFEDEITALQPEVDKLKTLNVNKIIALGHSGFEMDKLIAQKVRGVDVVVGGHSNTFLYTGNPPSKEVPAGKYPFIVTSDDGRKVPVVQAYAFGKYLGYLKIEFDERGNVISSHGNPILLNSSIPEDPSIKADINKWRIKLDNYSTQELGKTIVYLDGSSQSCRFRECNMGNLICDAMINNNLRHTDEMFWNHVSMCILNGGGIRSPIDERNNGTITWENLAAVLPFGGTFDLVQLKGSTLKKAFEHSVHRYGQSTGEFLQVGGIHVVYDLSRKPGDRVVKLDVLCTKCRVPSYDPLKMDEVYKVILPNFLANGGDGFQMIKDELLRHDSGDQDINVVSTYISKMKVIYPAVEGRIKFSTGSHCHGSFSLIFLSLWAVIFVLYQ

In general, IC50 refers to the concentration needed to halve the response being measured. On to `Nc1ncnc2c1ncn2[C@@H]1O[C@H](COP(=O)(O)CP(=O)(O)O)[C@@H](O)[C@H]1O` [PHOSPHOMETHYLPHOSPHONIC ACID ADENOSYL ESTER], for which the figures for the IC50 in test [1], in test [2] and in test [3] were 21.4 µM, 3800 nM and 23600 nM, respectively.

As to `Nc1nc(Cl)nc2c1ncn2[C@@H]1O[C@H](CO)[C@@H](O)[C@@H]1F` [CLOFARABINE], the IC50 in test [4] was determined as 0.044 µM; in test [5], 0.017 µM; in test [6] it was 380 nM; in test [7] it was 0.04 µM.

Regarding `Nc1nc(Cl)nc2c1ncn2[C@@H]1O[C@H](COP(=O)(O)CP(=O)(O)O)[C@@H](O)[C@@H]1F`, the IC50 in test [1] was 3.2 µM; in test [2] it was 180 nM; in test [3], 240 nM; in test [4] it was 50.6 µM; in test [5] it was 39.5 µM; in test [6], above 300000 nM. Besides, the half-maximal inhibitory concentration (IC50) in test [7] amounted to 49.4 µM.

With `Nc1nc(Cl)nc2c1ncn2[C@H]1C[C@H](O)[C@@H](COP(=O)(O)CP(=O)(O)O)O1`, the IC50 turned out to be 147 µM in test [1] and 2000 nM in test [3]. Besides, in test [2], the inhibition result is “Active”.

For the compound `Nc1nc(F)nc2c1ncn2[C@@H]1O[C@H](COP(=O)(O)CP(=O)(O)O)[C@@H](O)[C@@H]1O`, the half-maximal inhibitory concentration (IC50) turned out to be 112 µM in test [1] and 2200 nM in test [3]. The inhibition entry in test [2] is “Active”.
